Here are results for one compound from patent US20120225889A1, “USE OF MACROCYCLIC LACTONE DERIVATIVES FOR THE TREATMENT OF INFLAMMATORY DISORDERS” (PIRAMAL LIFE SCIENCES LIMITED, priority 2010, published 2012).

Where two headings read alike, the source gives them in different places.

For assay [1], the system named is C57BL mice with DSS induced colitis. The experiment in a line: DSS induced murine model of acute colitis. Type of assay: in vivo. The procedure: The assay was designed as in references, Laboratory Investigation, 80, 1541, (2000), and Faseb Journal, 19:792, (2005), the disclosure of which is incorporated by reference for the teaching of the assay.
Normal, in-house bred female C57BL mice weighing […], 8-10 weeks old, were used. The animals were housed in individually ventilated cages, three per cage, throughout the experimental period.
Experimental colitis was induced in mice by replacing drinking water with 3% (w/v) DSS (molecular weight 36,000-50,000, MP Biomedicals Inc., USA) solution. This solution was prepared in water, freshly every alternate day and was made available to the experimental animals ad libitum, from day 0 to day 10. A batch of six naïve animals received water instead of DSS during this period.
The animals were weighed every day and the record of body weights was maintained. The suspension of test compound (was prepared at a concentration of 0.05 mg/mL, in 0.5% (w/v) CMC after mixing with minimum quantity of Tween 80 necessary to wet the compound, and was administered orally, daily once to the animals at a volume of 10 mL/kg (dose=0.5 mg/kg). This treatment was initiated on day 6 and continued up to day 10. During this period, DSS control animals and naïve animals received CMC (mixed in the same proportion with 100 μL of Tween 80) at a dose of 10 mL/kg, daily once.
On day 11, the animals were sacrificed, blood was collected in heparinized tubes and the following parameters were studied; • 1. Rectal bleeding/blood in faeces • 2. Fecal consistency • 3. Bleeding in colon • 4. Colon weight • 5. Colon length • 6. Change in body weight on day 11 from that of day 0 • 7. Blood hemoglobin concentration
The data are represented in the following tables (Table 8, Table 9 and Table 10) as quantifiable parameters, descriptive parameters and actual scores. The descriptive parameters are represented by DAI. DAI is a research tool used to quantify the symptoms of the colitic animals. DAI is used in order to define response of the treatment or remission of the disease. In order to achieve this, various factors are studied. […] DAI is the sum of the scores of all factors.
On the last day of compound treatment (compound of example 7, 0.5 mg/kg, p.o., […]) the animals were euthanized humanely, blood samples were collected and the colon was excised. Anterior part of the colon was washed with normal saline to remove fecal material and then fixed in 10% NBF (Neutral buffered formalin). After 10 days of fixation the colon specimens were trimmed and processed overnight using automated tissue processor. Following day the specimens were blocked in paraffin and exposed to cold shock overnight at −18° C. Sections (5μ) were made from cross section of the colonic lumen and stained with routine Hematoxyllin (Sigma, USA) & Eosin (Loba Chemie, India) and mounted permanently. Slides were dried for 24 h and then graded histologically. The results were expressed as histological scores. Histological analysis was based on various parameters like presence of inflammatory cells, erosions, crypt destruction, edema and overall architectural changes graded on a score of 0 to 3, wherein 0 corresponds to absence, 1 corresponds to changes in 25% of the circumference of the colonic lumen, 2 corresponds to up to 50% and 3 corresponds to more than 50% of colonic circumference getting affected. All the scores were summed up to arrive to a total histological score for each section. Two random sections were graded and mean was calculated.

In a further assay the test system is IL-2. Description: Cytokine release assay in hPBMCs: IL-2. Type of assay: cell-based. The following applies: Homo sapiens. Here is the method:
hPBMCs were obtained from healthy donors by centrifugation of heparinized venous blood over Ficoll/Hypaque solution (Histopaque-1077, Sigma, USA). Isolated hPBMCs were suspended in RPMI 1640 culture medium supplemented with 10% FBS and seeded at a density of 50,000 cells/well in a 96-well plate (Nunc, USA). The cells were incubated at 37° C., 5% CO2 for a period of 24 h. These cells were used for the lymphocyte proliferation as well as cytokine release assay.
The plated cells were treated with different concentrations of the test compound (prepared as mM stock in DMSO and diluted with DMSO to achieve the following final concentrations in the assay: 100, 10, 1, 0.1, 0.01, 0.001, 0.0001, 0.00001 and 0.000001 μM) and incubated for 30 min. The cells were then stimulated with PHA (prepared as 1 mg/mL stock in RPMI 1640 culture medium and used at a final concentration of 5 μg/mL). FK506 was used as a standard. The plates were incubated at 37° C., 5% CO2 for 48 h. The cytokines in the supernatant collected were detected using ELISA kit (BD biosciences, USA). The cytokines evaluated in the assay were TNF-α, IL-2, IL-6, and IFN-γ.

Another assay concerns MyD88. The experiment in a line: Gene expression profile using RTQ-PCR: MyD88. Type of assay: cell-based, human. The following applies: 3 μM. The procedure: (§1) The effect of the compound of example 7 was measured in stimulated untreated cells from the monocytic cell line (THP-1), human monocytes and synovial cells from rheumatoid arthritis patient. The effect of the compound in the THP-1 cell line was measured in terms of gene expression and was expressed as fold changes as compared to the cell stimulated control with no drug treatment.
(§2) THP-1 cells, human monocytes and synovial cells were treated with compound of example 7 or vehicle (0.5% DMSO). Total RNA isolation using a commercial RNA extraction kit (Qiagen Corporation, Germany) The first-strand cDNA was synthesized from total RNA using first strand cDNA synthesis kit from Invitrogen Corporation (California, USA). This was followed by real time quantitative polymerase chain reaction (RTQ PCR) using gene specific primers and standard thermal program of initial denaturation at 95° C. for 5 min and cycles of 95° C. for 10 seconds, followed by 60° C. for 30 seconds (Realplex PCR machine from Eppendorf, Germany). Quantitative measurement of products made during PCR cycles was normalized against a housekeeping gene (Actin) and was used to measure the gene expression as fold changes as compared to respective control.

For a further assay, the system named is MMP13. The experiment in a line: Gene expression profile using RTQ-PCR: MMP13. Type of assay: cell-based, human. The following applies: 3 μM. Here is the method:
as §1, §2

[2] abbreviates: day 11, DSS mice, 0.5 mg/kg orally daily once, day 6 to day 10.
Where [3] appears, read: score 0-3 (Table 9), DSS mice, 0.5 mg/kg orally daily once, day 6 to day 10.
Setting [4] is: Human monocytes, 3 h, ± SE, N = 3.

In the case of `C/C=C/C(O)C(C)/C=C/C(=N\O)C(C)C(O)C(C)C1OC(=O)/C(OC)=C/C(C)=C/C(C)C(O)C(CC)C(O)C(C)C/C(C)=C/C=C/C1OC` (centres unmarked) [Compound of example 7, (3Z,5E,13E,15E)-18-((5Z,6E,10E)-3,9-Dihydroxy-5-(hydroxymino)-4,8-dimethyldodeca-6,10-dien-2-yl)-9-ethyl-8,10-dihydroxy-3,17-dimethoxy-5,7,11,13-tetramethyl oxacyclooctadeca-3,5,13,15-tetraen-2-one], in assay [1] (0.5 mg/kg, p.o., b.i.d, DSS control 7.50+0.96), the “Group mean histological score (colon)” value is given as 5.33+0.99. Moreover, in assay [1] (DSS induced colitic C57BL mice), the “histological damage (colon)” value is given as “confer protection against histological damage”. Besides, in assay [1] (blood hemoglobin, day 11, DSS mice, 0.5 mg/kg orally daily once, day 6 to day 10), the Hbg % was 10.77 ± 0.48 g %. The compound also displayed a Colon length in assay [1] (setting [2]) of 7.33 ± 0.30. In assay [1] (setting [2]), this compound yielded a Colon weight mg of 273.8 ± 8.93 mg. In addition, the “Colon weight mg per cm” value in assay [1] (setting [2]) is 37.6 ± 1.8 mg per cm. Besides, in assay [1] (day 11 from day 0, DSS mice, 0.5 mg/kg orally daily once, day 6 to day 10), the “Change in body weight” value is on record as “+0.57 ± 0.28”. The severity of colitis entry in assay [1] (orally 0.5 mg/kg, mice with DSS induced colitis) is “reduces the severity of colitis”. The “Blood in colon score” value in assay [1] (setting [3]) was determined as 0.61 ± 0.30. The Fecal consistency score in assay [1] (setting [3]) is listed as 1.0 ± 0.50. The same compound had a Rectal bleeding score in assay [1] (setting [3]) of 0.18 ± 0.15. This compound displayed a Disease activity index in assay [1] (sum of the scores of all features, DSS mice, 0.5 mg/kg orally daily once, day 6 to day 10) of 1.67 ± 0.47. The IC50 came out at 0.005 µM in the assay with IL-2 (Table 3: PHA-PMA induced hPBMC's, 48 h, read-out: IL-2 IC50) and 0.007 µM with IL-2 (Table 4: mitogen stimulated production from hPBMC's, read-out: IL-2 (IC50 μM)). Moreover, the MyD88 gene expression in the assay with MyD88 (setting [4]) was −0.2 + 1.9 log fold change; with MyD88 (Synovial cells, 12 h, N = 1) it was −0.5 log fold change; with MyD88 (THP-1 cells, 12 h, ± SE, N = 3), −0.2 + 0.2 log fold change. For the same compound, the MMP13 gene expression with MMP13 (setting [4]) is recorded as −2.2 + 2.0 log fold change; in the assay with MMP13 (Synovial cells, 12 h, N = 1) it was −4.0 log fold change; in the assay with MMP13 (THP-1 cells, 12 h, ± SE, N = 3), −4.1 + 3.5 log fold change.
